This experiment concerns the target human Nav1.8 (Homo sapiens, UniProt Q9Y5Y9). As to the kind of experiment: SyncroPatch384PE assay (automated patch clamp). Particulars: human Nav1.8/b3 CHO cells. The experiment is classed as cell-based. The procedure: Compounds were tested on recombinant human Nav1.8/b3 stably transfected CHO cells using the SyncroPatch384PE system (Nanion Technologies), an automated patch clamp device. Cells were cultured at 37° C./5% CO2 in Ham's F-12 supplemented with 10% fetal bovine serum, 100 U/mL penicillin G sodium, […] streptomycin sulfate and selection antibiotics (0.01 mg/mL Blasticidin, 0.4 mg/mL Zeocin and 0.25 mg/mL Hygromycin). On the day of the recordings, cells in culture dishes were washed twice with Hank's Balanced Salt Solution (HBSS) and treated with Accutase for approximately 20 minutes. Immediately before use in the SynchroPatch384PE using an 8-hole NPC-384 chip, the cells were washed in HBSS to remove the Accutase and re-suspended in extracellular solution. All experiments were performed at ambient temperature. Intracellular solution contained (mM): CsCl, 50; CsF, 90; MgCl2, 5; EGTA, 1; HEPES, 10; pH adjusted to 7.2 with CsOH. Extracellular solution contained (mM): NaCl, 137; KCl, 4.0; CaCl2), 3.8; MgCl2, 1; HEPES, 10; Glucose, 10; pH adjusted to 7.4 with NaOH. 100 nM tetrodotoxin (TTX) was added to the extracellular solution to block endogenous TTX-sensitive sodium currents.
Compounds were tested in quadruplicate in 0.3% DMSO and 0.03% pluronic Acid. Compounds were diluted 1:3.33 in extracellular solution to create an 8-point concentration response curve. Each plate contained a historical positive control and up to ten compounds. 300 μM tetracaine and 0.3% DMSO+0.03% pluronic acid were used as high and low controls respectively.
Whole cell patch clamp recordings were conducted according to Nanion's standard procedure for SyncroPatch384PE®. Cells were held at a holding potential of −120 mV. A depolarization step to 10 mV for 30 ms was applied (P1 measurement), followed by a hyperpolarization step to −100 mV for 100 ms. An inactivation step at −35 mV for 10 sec was applied before stepping to −100 mV for 20 ms, followed by a step to 10 mV for 30 ms (P2 measurement) and then back to −100 mV for 30 ms. Sweep interval was 15 sec. Following establishment of the whole-cell configuration in extracellular solution, cells were washed in extracellular solution containing 0.3% DMSO and 0.03% pluronic acid to stabilize the baseline current. Compounds were then applied by the SynchroPatch384 PE system into each well and the current was recorded for five minutes in extracellular solution, followed by application of tetracaine to achieve full block at the end of experiment. The potency of the compounds was assessed on two read-outs, resting state block (P1 measurement) or inactivated state block (P2 measurement) to obtain IC50 values. Values were normalized to high (tetracaine) and low (DMSO+pluronic acid) controls.
Examples 1 to 219 and Examples 225 to 236 are assayed using SyncroPatch384PE assay described above.
(In general: In patch-clamp work, channel activity is measured electrically.)

Where [1] appears, read: inactivated state block (P2 measurement), read-out: P2 IC50.
Where [2] appears, read: resting state block (P1 measurement), read-out: P1 IC50.

Like-named read-outs stand apart in the source and are kept apart here.

human Nav1.8, sequence (Q9Y5Y9 whole entry): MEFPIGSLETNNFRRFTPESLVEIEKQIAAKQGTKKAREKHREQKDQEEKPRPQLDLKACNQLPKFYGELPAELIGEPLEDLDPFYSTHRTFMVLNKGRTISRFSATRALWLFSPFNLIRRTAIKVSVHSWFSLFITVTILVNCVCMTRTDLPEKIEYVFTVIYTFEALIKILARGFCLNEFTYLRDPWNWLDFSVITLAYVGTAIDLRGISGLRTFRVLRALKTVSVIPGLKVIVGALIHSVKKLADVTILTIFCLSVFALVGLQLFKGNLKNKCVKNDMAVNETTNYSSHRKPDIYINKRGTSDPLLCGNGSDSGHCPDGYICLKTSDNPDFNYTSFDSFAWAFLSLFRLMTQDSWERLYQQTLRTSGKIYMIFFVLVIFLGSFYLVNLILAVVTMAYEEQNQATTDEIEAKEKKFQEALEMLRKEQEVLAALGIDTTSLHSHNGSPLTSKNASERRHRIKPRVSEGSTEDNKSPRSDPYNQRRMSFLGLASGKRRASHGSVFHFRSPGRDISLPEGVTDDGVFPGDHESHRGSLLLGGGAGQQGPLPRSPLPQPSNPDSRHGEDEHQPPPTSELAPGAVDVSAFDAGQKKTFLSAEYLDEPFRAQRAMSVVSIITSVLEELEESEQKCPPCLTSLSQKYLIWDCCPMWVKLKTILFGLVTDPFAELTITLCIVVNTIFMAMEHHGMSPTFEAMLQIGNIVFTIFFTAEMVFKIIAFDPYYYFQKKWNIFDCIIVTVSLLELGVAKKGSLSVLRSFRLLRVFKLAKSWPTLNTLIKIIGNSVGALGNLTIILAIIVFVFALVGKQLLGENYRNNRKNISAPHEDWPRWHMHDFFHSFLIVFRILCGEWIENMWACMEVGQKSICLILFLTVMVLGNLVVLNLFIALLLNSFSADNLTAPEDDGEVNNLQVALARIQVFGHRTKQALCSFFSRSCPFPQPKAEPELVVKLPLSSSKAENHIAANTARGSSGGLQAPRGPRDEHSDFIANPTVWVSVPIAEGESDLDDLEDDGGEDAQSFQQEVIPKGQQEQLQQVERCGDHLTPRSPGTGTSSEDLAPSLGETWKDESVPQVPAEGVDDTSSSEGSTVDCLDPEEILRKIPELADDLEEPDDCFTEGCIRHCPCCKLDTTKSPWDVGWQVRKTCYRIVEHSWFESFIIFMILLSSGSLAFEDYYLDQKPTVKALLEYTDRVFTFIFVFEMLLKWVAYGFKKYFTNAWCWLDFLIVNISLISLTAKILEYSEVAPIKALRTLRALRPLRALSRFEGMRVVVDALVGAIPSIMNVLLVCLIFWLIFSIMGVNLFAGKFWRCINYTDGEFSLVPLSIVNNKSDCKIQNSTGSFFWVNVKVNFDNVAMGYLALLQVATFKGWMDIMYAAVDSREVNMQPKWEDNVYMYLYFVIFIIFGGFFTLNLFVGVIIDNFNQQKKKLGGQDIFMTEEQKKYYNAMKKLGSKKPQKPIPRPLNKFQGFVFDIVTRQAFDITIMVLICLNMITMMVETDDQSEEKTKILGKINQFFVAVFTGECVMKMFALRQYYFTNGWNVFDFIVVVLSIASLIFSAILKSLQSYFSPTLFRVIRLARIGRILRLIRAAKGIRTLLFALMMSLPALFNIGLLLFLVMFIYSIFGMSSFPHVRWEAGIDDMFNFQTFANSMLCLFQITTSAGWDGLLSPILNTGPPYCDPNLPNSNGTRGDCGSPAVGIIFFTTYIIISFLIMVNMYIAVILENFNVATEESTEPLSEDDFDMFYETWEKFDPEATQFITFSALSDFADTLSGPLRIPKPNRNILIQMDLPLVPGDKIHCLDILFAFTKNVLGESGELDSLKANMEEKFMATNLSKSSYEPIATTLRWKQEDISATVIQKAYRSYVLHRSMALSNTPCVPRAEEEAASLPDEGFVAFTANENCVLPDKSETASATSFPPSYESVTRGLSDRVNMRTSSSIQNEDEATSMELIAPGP

Consider `Cc1c(C(F)(F)F)ncc(N2CCCC(F)(F)CC2)c1C(=O)Nc1cccc([S@](C)(=N)=O)c1` [Example 197, (R)-5-(4,4-difluoroazepan-1-yl)-3-methyl-N-(3-(S-methylsulfonimidoyl)phenyl)-2-(trifluoromethyl)isonicotinamide], for which the IC50 runs as follows: under setting [1], 0.05 to 0.1 µM; under setting [2], 0.05 to 0.1 µM.

Turning to `CS(=N)(=O)c1cccc(NC(=O)c2cc(C(F)(F)F)nnc2N2CCC3(CC2)CC3)c1` (stereo not shown) [Example 14, N-(3-(S-methylsulfonimidoyl)phenyl)-3-(6-azaspiro[2.5]octan-6-yl)-6-(trifluoromethyl)pyridazine-4-carboxamide], the IC50 was greater than 0.2 µM under setting [1] and greater than 0.2 µM under setting [2].

`C=CCCc1ccc(C(=O)Nc2cccc(S(C)(=N)=O)c2)c(N2CCCC(F)(F)CC2)n1` (stereo not shown) [Example 13, 6-(3-Buten-1-yl)-2-(4,4-difluoroazepan-1-yl)-N-(3-(S-methylsulfonimidoyl)phenyl)nicotinamide]: the IC50 under setting [1] was no more than 0.005 µM and the IC50 under setting [2] is no more than 0.005 µM.

Consider `CC#Cc1cnc(N2CCCC(F)(F)CC2)c(C(=O)Nc2cccc([S@](C)(=N)=O)c2)c1C` [Example 127, (R)-2-(4,4-difluoroazepan-1-yl)-4-methyl-N-(3-(S-methylsulfonimidoyl)phenyl)-5-(prop-1-yn-1-yl)nicotinamide], for which the IC50 reads like this: under setting [1], no more than 0.005 µM; under setting [2], no more than 0.005 µM.

As to `Cc1nc(N2CCCC(F)(F)CC2)c(C(=O)Nc2cccc([S@@](C)(=N)=O)c2)cc1C(F)(F)F` [Example 5, (S)-2-(4,4-Difluoroazepan-1-yl)-6-methyl-N-(3-(S-methylsulfonimidoyl)phenyl)-5-(trifluoromethyl)nicotinamide], the IC50 runs as follows: under setting [1], no more than 0.005 µM; under setting [2], no more than 0.005 µM.

Regarding `Cc1c(-c2ccncc2)cnc(N2CCCC(F)(F)CC2)c1C(=O)Nc1cccc(S(C)(=N)=O)c1` (stereo not shown) [Example 85, 6-(4,4-difluoroazepan-1-yl)-4-methyl-N-(3-(S-methylsulfonimidoyl)phenyl)-[3,4bipyridine]-5-carboxamide], the IC50 is, setting by setting: under setting [1], 0.05 to 0.1 µM; under setting [2], 0.05 to 0.1 µM.

For `Cc1c(C(=O)Nc2cccc([S@@](C)(=O)=NC(=O)CN)c2)c(N2CCCC(F)(F)CC2)nc(C(F)(F)F)c1-c1cnn(C)c1` [Example 184, (R)-2-(4,4-difluoroazepan-1-yl)-N-(3-(N-glycyl-S-methylsulfonimidoyl)phenyl)-4-methyl-5-(1-methyl-1H-pyrazol-4-yl)-6-(trifluoromethyl)nicotinamide], the IC50 is, setting by setting: under setting [1], no more than 0.005 µM; under setting [2], no more than 0.005 µM.

In the case of `Cc1c(-c2ccccc2)cnc(N2CCCC(F)(F)CC2)c1C(=O)Nc1cccc(S(C)(=N)=O)c1` (stereo not shown) [Example 42, 2-(4,4-Difluoroazepan-1-yl)-4-methyl-N-(3-(S-methylsulfonimidoyl)phenyl)-5-phenylnicotinamide], the IC50 runs as follows: under setting [1], no more than 0.005 µM; under setting [2], no more than 0.005 µM.

Take `C=CCCc1ccc(C(=O)Nc2cccc([S@](C)(=N)=O)c2)c(N2CCCC(F)(F)CC2)n1` [Example 35, (R)-6-(But-3-en-1-yl)-2-(4,4-difluoroazepan-1-yl)-N-(3-(S-methylsulfonimidoyl)phenyl)nicotinamide]: the IC50 runs as follows: under setting [1], no more than 0.005 µM; under setting [2], no more than 0.005 µM.

On to `Cc1c(C(F)(F)F)nnc(N2CCCCCC2)c1C(=O)Nc1cccc([S@@](C)(=N)=O)c1` [Example 11, (S)-3-(azepan-1-yl)-5-methyl-N-(3-(S-methylsulfonimidoyl)phenyl)-6-(trifluoromethyl)pyridazine-4-carboxamide], for which the half-inhibitory concentration (IC50) runs as follows: under setting [1], 0.1 to 0.2 µM; under setting [2], 0.1 to 0.2 µM.

For `Cc1c(Cl)c(C#N)nc(N2CCCC(F)(F)CC2)c1C(=O)Nc1cccc([S@](C)(=N)=O)c1` [Example 171, (R)-5-chloro-6-cyano-2-(4,4-difluoroazepan-1-yl)-4-methyl-N-(3-(S-methylsulfonimidoyl)phenyl)nicotinamide], the IC50 is, setting by setting: under setting [1], no more than 0.005 µM; under setting [2], no more than 0.005 µM.

For the molecule `Cc1c(-c2cnn(C)c2)cnc(N2CCCC(F)(F)CC2)c1C(=O)NC12CC(C(=O)O)(C1)C2` [Example 142, 3-(2-(4,4-difluoroazepan-1-yl)-4-methyl-5-(1-methyl-1H-pyrazol-4-yl)nicotinamido)bicyclo[1.1.1]pentane-1-carboxylic acid], the IC50 was no more than 0.005 µM under setting [1] and no more than 0.005 µM under setting [2].

As to `Cc1c(C(F)(F)F)nnc(N2CCCC(F)(F)CC2)c1C(=O)Nc1cccc(S(C)(=N)=N)c1` [Example 120, 3-(4,4-difluoroazepan-1-yl)-N-{3-[diimino(methyl)-λ^6-sulfanyl]phenyl}-5-methyl-6-(trifluoromethyl)pyridazine-4-carboxamide], the IC50 is, setting by setting: under setting [1], 0.05 to 0.1 µM; under setting [2], 0.1 to 0.2 µM.

Consider `Cc1c(-c2cnn(C3CC3)c2)cnc(N2CCCC(F)(F)CC2)c1C(=O)Nc1cccc([S@](C)(=N)=O)c1` [Example 69, (R)-5-(1-cyclopropyl-1H-pyrazol-4-yl)-2-(4,4-difluoroazepan-1-yl)-4-methyl-N-(3-(S-methylsulfonimidoyl)phenyl)nicotinamide], for which the IC50 under setting [1] lay in the range of 0.005 to 0.05 µM and the IC50 under setting [2] lay in the range of 0.005 to 0.05 µM.

For the molecule `Cc1c(C(F)(F)F)nnc(N2CC3(COC3)C2)c1C(=O)Nc1cccc(S(C)(=N)=O)c1` (stereo not shown) [Example 100, 5-methyl-N-(3-(S-methylsulfonimidoyl)phenyl)-3-(2-oxa-6-azaspiro[3.3]heptan-6-yl)-6-(trifluoromethyl)pyridazine-4-carboxamide], the half-maximal inhibitory concentration (IC50) is, setting by setting: under setting [1], greater than 0.2 µM; under setting [2], greater than 0.2 µM.

`Cc1nc(N2CCCC(F)(F)CC2)c(C(=O)Nc2cccc(S(C)(=N)=O)c2)c(C)c1Cl` (stereo not shown) [Example 106, 5-chloro-2-(4,4-difluoroazepan-1-yl)-4,6-dimethyl-N-(3-(S-methylsulfonimidoyl)phenyl)nicotinamide]: the IC50 under setting [1] was no more than 0.005 µM and the IC50 under setting [2] was no more than 0.005 µM.

Consider `Cc1c(-c2cnn(C)c2)cnc(N2CCCC(F)(F)CC2)c1C(=O)Nc1cccc(S(C)(=N)=O)c1` (stereo not shown) [Example 83, 2-(4,4-difluoroazepan-1-yl)-4-methyl-5-(1-methyl-1H-pyrazol-4-yl)-N-(3-(S-methylsulfonimidoyl)phenyl)nicotinamide], for which the IC50 is 0.05 to 0.1 µM under setting [1] and 0.05 to 0.1 µM under setting [2].

As for `Cc1c(C#N)cnc(N2CCCC(F)(F)CC2)c1C(=O)Nc1ccnc([S@](C)(=N)=O)c1` [Example 201, (R)-5-cyano-2-(4,4-difluoroazepan-1-yl)-4-methyl-N-(2-(S-methylsulfonimidoyl)pyridin-4-yl)nicotinamide], the 50% inhibitory concentration (IC50) under setting [1] lay in the range of 0.005 to 0.05 µM and the IC50 under setting [2] fell in the range of 0.005 to 0.05 µM.

As for `CS(=O)(=O)c1cccc(NC(=O)c2nnc(C(F)(F)F)cc2N2CCCC(F)(F)CC2)c1` [Example 39, 4-(4,4-Difluoroazepan-1-yl)-N-(3-(methylsulfonyl)phenyl)-6-(trifluoromethyl)pyridazine-3-carboxamide], the IC50 was greater than 0.2 µM under setting [1] and greater than 0.2 µM under setting [2].

`C[S@@](=N)(=O)c1cccc(NC(=O)c2cc(Cl)c(C(F)(F)F)cc2N2CCCC(F)(F)CC2)c1` [Example 77, (R)-5-chloro-2-(4,4-difluoroazepan-1-yl)-N-(3-(S-methylsulfonimidoyl)phenyl)-4-(trifluoromethyl)benzamide]: the IC50 by setting is: under setting [1], no more than 0.005 µM; under setting [2], no more than 0.005 µM.

Turning to `Cc1c(-c2ccn(C)n2)cnc(N2CCCC(F)(F)CC2)c1C(=O)Nc1cccc(S(C)(=N)=O)c1` (stereo not shown) [Example 89, 2-(4,4-difluoroazepan-1-yl)-4-methyl-5-(1-methyl-1H-pyrazol-3-yl)-N-(3-(S-methylsulfonimidoyl)phenyl)nicotinamide], the IC50 is, setting by setting: under setting [1], 0.1 to 0.2 µM; under setting [2], 0.1 to 0.2 µM.

Turning to `COc1ccc(-c2cnc(N3CCCC(F)(F)CC3)c(C(=O)Nc3cccc(S(C)(=N)=O)c3)c2C)cc1` (stereo not shown) [Example 93, 2-(4,4-difluoroazepan-1-yl)-5-(4-methoxyphenyl)-4-methyl-N-(3-(S-methylsulfonimidoyl)phenyl)nicotinamide], the IC50 by setting is: under setting [1], no more than 0.005 µM; under setting [2], no more than 0.005 µM.

Regarding `Cc1nc(N2CCCC(F)(F)CC2)c(C(=O)Nc2cccc([S@@](C)(=N)=O)c2)c(C)c1C(F)(F)F` (single isomer, unassigned) [Example 185], the IC50 was no more than 0.005 µM under setting [1] and no more than 0.005 µM under setting [2].

One may read the IC50 as the concentration at which inhibition is half-maximal.

(Values after patent publication US20250154109A1, “SODIUM CHANNEL BLOCKING COMPOUNDS, DERIVATIVES THEREOF, AND METHODS OF THEIR USE” (LATIGO BIOTHERAPEUTICS, INC, priority 2022, published 2025).)
